pKi: −log10 of the molar value.
Columns and labels:
[1] = target: Adenosine receptor A2a (Rattus norvegicus, UniProt P30543); assay: Binding affinity for adenosine A2A receptor of rat striatal membrane by displacing [3H]-ZM 241385; set-up: species or system Striatum
[2] = target: T1, Adenosine receptor A3 (Homo sapiens, UniProt P0DMS8); assay: Binding affinity for Adenosine A3 receptor expressed in HEK 293 cells by displacing i[125I]-ABMECA; assay type: cell-based, HEK293
T1 sequence (P0DMS8 whole entry): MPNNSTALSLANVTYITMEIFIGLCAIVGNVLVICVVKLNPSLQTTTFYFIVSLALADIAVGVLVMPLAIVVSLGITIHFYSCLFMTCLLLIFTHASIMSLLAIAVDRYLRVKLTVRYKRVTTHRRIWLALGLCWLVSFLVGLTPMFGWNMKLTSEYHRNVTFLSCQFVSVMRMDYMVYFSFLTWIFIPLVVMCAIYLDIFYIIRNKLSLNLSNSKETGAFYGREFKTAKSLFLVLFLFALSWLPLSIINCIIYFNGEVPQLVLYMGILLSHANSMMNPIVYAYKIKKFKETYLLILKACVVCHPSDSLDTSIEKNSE

[3] = target: T2, Adenosine receptor A1 (Rattus norvegicus, UniProt P25099); assay: Binding affinity for Adenosine A1 receptor of rat cortical membrane by displacing [3H]DPCPX
T2 sequence (P25099 whole entry): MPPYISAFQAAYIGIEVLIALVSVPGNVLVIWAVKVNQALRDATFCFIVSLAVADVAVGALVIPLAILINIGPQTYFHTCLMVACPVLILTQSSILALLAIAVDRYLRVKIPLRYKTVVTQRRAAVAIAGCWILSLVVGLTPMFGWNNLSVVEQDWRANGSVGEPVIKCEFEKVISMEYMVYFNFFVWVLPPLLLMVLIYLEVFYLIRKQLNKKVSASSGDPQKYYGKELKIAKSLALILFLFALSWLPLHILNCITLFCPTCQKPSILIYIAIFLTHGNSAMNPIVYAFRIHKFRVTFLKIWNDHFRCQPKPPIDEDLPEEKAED

[4] = target: Adenosine receptor A2a (Rattus norvegicus) (UniProt P30543); assay: Binding affinity for adenosine A2A receptor of rat striatal membrane by displacing [3H]ZM-241385
Adenosine receptor A2a (Rattus norvegicus), sequence (P30543 whole entry): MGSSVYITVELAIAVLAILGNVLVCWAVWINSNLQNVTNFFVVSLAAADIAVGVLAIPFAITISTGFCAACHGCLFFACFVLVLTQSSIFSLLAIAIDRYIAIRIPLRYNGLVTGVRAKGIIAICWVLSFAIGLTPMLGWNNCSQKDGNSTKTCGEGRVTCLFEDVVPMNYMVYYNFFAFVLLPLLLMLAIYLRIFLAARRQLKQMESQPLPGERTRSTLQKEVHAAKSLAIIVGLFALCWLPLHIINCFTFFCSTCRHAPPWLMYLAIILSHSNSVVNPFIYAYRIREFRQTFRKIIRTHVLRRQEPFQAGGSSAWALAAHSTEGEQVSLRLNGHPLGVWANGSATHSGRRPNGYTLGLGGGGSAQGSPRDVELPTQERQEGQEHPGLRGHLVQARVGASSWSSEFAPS

Adenosine receptor A2a, sequence (P30543 whole entry): as above

Row | Structure (SMILES) | pKi [1] | pKi [2] | pKi [3] | Displacement [4] [%]
1 | O=[N+]([O-])c1nc(NCc2cccc(I)c2)c2ncn([C@@H]3O[C@H](CO)[C@@H](O)[C@H]3O)c2n1 | 5.84 | 7.92 | 6.86 | –
2 | Nc1cc([N+](=O)[O-])nc2c1ncn2[C@@H]1O[C@H](CO)[C@@H](O)[C@H]1O | 6.36 | 6.67 | 6.19 | –
3 | Nc1nc([N+](=O)[O-])nc2c1ncn2[C@@H]1O[C@H](CO)[C@@H](O)[C@H]1O | 6.54 | 6.69 | 6.46 | –
4 | O=[N+]([O-])c1nc(NC2CCCC2)c2ncn([C@@H]3O[C@H](CO)[C@@H](O)[C@H]3O)c2n1 | 5.45 | 6.65 | 7.33 | –
5 | O=[N+]([O-])c1cc(NCc2cccc(I)c2)c2ncn([C@@H]3O[C@H](CO)[C@@H](O)[C@H]3O)c2n1 | 6.68 | 8.01 | 6.96 | –
6 | O=[N+]([O-])c1nc(NCc2ccccc2)c2ncn([C@@H]3O[C@H](CO)[C@@H](O)[C@H]3O)c2n1 | – | 6.79 | – | 20
7 | CONc1nc([N+](=O)[O-])nc2c1ncn2[C@@H]1O[C@H](CO)[C@@H](O)[C@H]1O | – | 7.45 | 5.94 | 9
8 | O=[N+]([O-])c1cc(NC2CCCC2)c2ncn([C@@H]3O[C@H](CO)[C@@H](O)[C@H]3O)c2n1 | – | 6.47 | 7.28 | 52

Reference: ChEMBL document CHEMBL1132734, “2-Nitro analogues of adenosine and 1-deazaadenosine: synthesis and binding studies at the adenosine A1, A2A and A3 receptor subtypes” (Bioorg Med Chem Lett, 2000)
